In patent US20110003898A1, “MEDICAL GLUES FOR SURGERY COMPRISING BIOACTIVE COMPOUNDS” (Bayer MaterialScience AG, priority 2008, published 2011):

Assays:
Type in all cases: physicochemical
[1] = Film formation on the skin, cure time to disappearance of surface tackiness; settings: adhesive with 2-5% active ingredient; ^2 = suspension
Text: (§1) 0.45 g of PEG 200 were mixed thoroughly with 0.55 g of aspartate B and 2-5% of the active ingredient. The solution was stirred with 4 g of prepolymer A and applied to the tissue. We tested for processing time and the effect of adhesion to meat as well as the formation of a film on the skin.

[2] = Active substance release from adhesive film into physiological saline (HPLC-UV/MS); settings: 37° C., 2 h; for Release: 5x5 cm section (0.5 g) in 20 g physiological saline; for Amount of active substance released [%]: physiological saline
Description: For the quantitative determination of the active substance release, a transparent film with a thickness of 200 ? was produced by knife coating from 4 g of prepolymer A, 0.45 g of PEG 200, […] A section measuring 5×5 cm (weight: 0.5 g) was cut from this film, placed in a petri dish, covered with 20 g of physiological saline solution, and stored in an incubator at 37° C. for 2 h. The quantitative determination was carried out via HPLC-UV/MS (HPLC column: Inertsil ODS 3 5 □ 120 A 125 mm*2.1 mm 60° C.; eluent A: 25 mmol ammonium acetate in water, eluent B: 25 mmol ammonium acetate in methanol).

[3] = Pot life (processing time) of adhesive with active ingredient; settings: 0.45 g PEG 200, 0.55 g aspartate B, 2-5% active ingredient, 4 g prepolymer A; ^2 = active substance in suspension
Text: as §1

[4] = 100 mg active substance in film
[5] = 250 mg active substance in film

Structure (SMILES) | Film formation cure time [min to disappearance of surface tackiness] [1] [min] | further results
CC(C)Cc1ccc(C(C)C(=O)O)cc1 (stereo not shown) [ibuprofen] | 6 | –
CCn1cc(C(=O)O)c(=O)c2ccc(C)nc21 [nalidixic acid] | 5 | Release [2, 4]: 110 mg/L; Amount of active substance released [%] [2, 4]: 22%
OC(Cn1cncn1)(Cn1cncn1)c1ccc(F)cc1F [fluconazole] | 15 | Pot life [3]: 3 min
CCCCNc1ccc(C(=O)OCCN(C)C)cc1 [tetracaine] | 7 | –
Cc1ccc(C(C)C)c(O)c1 [thymol] | 5 | –
CCOC(=O)c1ccc(N)cc1 [benzocaine] | 6 | –
O=C1OC(CN2CCOCC2)CN1/N=C/c1ccc([N+](=O)[O-])o1 (stereo not shown) [furaldatone] | 4 | –
CC(=O)Oc1ccccc1C(=O)O [acetylsalicylic acid] | 4 | Release [2, 5]: 320 mg/L; Amount of active substance released [%] [2, 5]: 25.6%
CC(=O)NS(=O)(=O)c1ccc(N)cc1 [sulfacetamide] | 5 | –
CC[C@H]1OC(=O)[C@H](C)[C@@H](O[C@H]2C[C@@](C)(OC)[C@@H](O)[C@H](C)O2)[C@H](C)[C@@H](O[C@@H]2O[C@H](C)C[C@H](N(C)C)[C@H]2O)[C@](C)(O)C[C@@H](C)C(=O)[C@H](C)[C@@H](O)[C@]1(C)O [erythromycin] | 6 | –
CCCCN1CCCCC1C(=O)Nc1c(C)cccc1C (stereo not shown) [bupivacaine] | 6 | –
CCN(CC)CC(=O)Nc1c(C)cccc1C [lidocaine] | 4 | Release [2, 5]: 570 mg/L; Amount of active substance released [%] [2, 5]: 45.6%
O=C(N[C@H](CO)[C@H](O)c1ccc([N+](=O)[O-])cc1)C(Cl)Cl [chloramphenicol] | 5 | Release [2, 5]: 646 mg/L; Amount of active substance released [%] [2, 5]: 51.7%
COc1cccc(C2(O)CCCCC2CN(C)C)c1 (stereo not shown) [tramadol] | 4 | –
Oc1cc(Cl)ccc1Oc1ccc(Cl)cc1Cl [triclosan (Irgasan), 2,4,4′-trichloro-2′-hydroxydiphenyl ether] | 5 | –
Cc1ncc([N+](=O)[O-])n1CCO [metronidazole] | 5 | Pot life [3]: 2 min
CC(=O)Nc1ccc(O)cc1 [paracetamol] | 7 | Release [2, 4]: 136 mg/L; Amount of active substance released [%] [2, 4]: 27.2%
C[C@]12CCC(=O)C=C1CC[C@@H]1[C@@H]2C(=O)C[C@@]2(C)[C@H]1CC[C@]2(O)C(=O)CO [cortisone] | 5 | Release [2, 4]: 230 mg/L; Amount of active substance released [%] [2, 4]: 46%
CCN1CCN(c2cc3c(cc2F)c(=O)c(C(=O)O)cn3C2CC2)CC1 [enrofloxazine] | 4 | Pot life [3]: 1 min
[H]/N=C(\N/C(=N/[H])NCCCCCCNC(=N)NC(=N)Nc1ccc(Cl)cc1)Nc1ccc(Cl)cc1 [chlorhexidine] | 3 | Pot life [3]: 0.5 min
COc1ccc2c(c1)c(CC(=O)OCC(=O)O)c(C)n2C(=O)c1ccc(Cl)cc1 [acemetacine] | 7 | –
